Measured values as given in PubChem BioAssay (NCI).
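In this assay, cells in 96-well plates receive the compound at five concentrations for 48 hours. Endpoints are linearly interpolated between the surrounding concentrations. Definition used: TGI = concentration required for complete inhibition of growth.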

How the values were obtained:
Test in all cases: NCI anticancer screen, dose series, 48 h
786-0 renal = test system: 786-0 renal
A498 renal = test system: A498 renal
A549 NSCLC = test system: A549 NSCLC
ACHN renal = test system: ACHN renal
BT-549 breast = test system: BT-549 breast
CAKI-1 renal = test system: CAKI-1 renal
CCRF-CEM leukemia = test system: CCRF-CEM leukemia
COLO 205 colon = test system: COLO 205 colon
DU-145 prostate = test system: DU-145 prostate
EKVX NSCLC = test system: EKVX NSCLC
HCC-2998 colon = test system: HCC-2998 colon
HCT-116 colon = test system: HCT-116 colon
HCT-15 colon = test system: HCT-15 colon
HL-60(TB) leukemia = test system: HL-60(TB) leukemia
HOP-62 NSCLC = test system: HOP-62 NSCLC
HS 578T breast = test system: HS 578T breast
HT29 colon = test system: HT29 colon
IGROV1 ovarian = test system: IGROV1 ovarian
K-562 leukemia = test system: K-562 leukemia
KM12 colon = test system: KM12 colon
LOX IMVI melanoma = test system: LOX IMVI melanoma
M14 melanoma = test system: M14 melanoma
MALME-3M melanoma = test system: MALME-3M melanoma
MCF7 breast = test system: MCF7 breast
MDA-MB-231 breast = test system: MDA-MB-231 breast
MDA-MB-435 = test system: MDA-MB-435
MDA-N = test system: MDA-N
MOLT-4 leukemia = test system: MOLT-4 leukemia
NCI-H226 lung = test system: NCI-H226 lung
NCI-H23 lung = test system: NCI-H23 lung
NCI-H460 lung = test system: NCI-H460 lung
NCI-H522 lung = test system: NCI-H522 lung
NCI/ADR-RES ovarian = test system: NCI/ADR-RES ovarian
OVCAR-3 ovarian = test system: OVCAR-3 ovarian
OVCAR-4 ovarian = test system: OVCAR-4 ovarian
OVCAR-5 ovarian = test system: OVCAR-5 ovarian
OVCAR-8 ovarian = test system: OVCAR-8 ovarian
PC-3 prostate = test system: PC-3 prostate
RPMI-8226 leukemia = test system: RPMI-8226 leukemia
RXF 393 renal = test system: RXF 393 renal
SF-268 CNS = test system: SF-268 CNS
SF-295 CNS = test system: SF-295 CNS
SF-539 CNS = test system: SF-539 CNS
SK-MEL-2 melanoma = test system: SK-MEL-2 melanoma
SK-MEL-28 melanoma = test system: SK-MEL-28 melanoma
SK-MEL-5 melanoma = test system: SK-MEL-5 melanoma
SK-OV-3 ovarian = test system: SK-OV-3 ovarian
SN12C renal = test system: SN12C renal
SNB-19 CNS = test system: SNB-19 CNS
SNB-75 CNS = test system: SNB-75 CNS
SW-620 colon = test system: SW-620 colon
T-47D breast = test system: T-47D breast
TK-10 renal = test system: TK-10 renal
U251 CNS = test system: U251 CNS
UACC-257 melanoma = test system: UACC-257 melanoma
UACC-62 melanoma = test system: UACC-62 melanoma
HOP-92 NSCLC = test system: HOP-92 NSCLC
SR leukemia = test system: SR leukemia
UO-31 renal = test system: UO-31 renal

## Cc1cc(S(=O)(=O)Nc2nc(N)nc(N3N=CCC3C)n2)c(SCC(=O)O)cc1Cl (stereo not drawn)
786-0 renal
  TGI: > 10 µM
A498 renal
  TGI: > 10 µM
A549 NSCLC
  TGI: > 10 µM
ACHN renal
  TGI: > 10 µM
BT-549 breast
  TGI: > 10 µM
CAKI-1 renal
  TGI: > 10 µM
CCRF-CEM leukemia
  TGI: > 10 µM
COLO 205 colon
  TGI: > 10 µM
DU-145 prostate
  TGI: > 10 µM
EKVX NSCLC
  TGI: > 10 µM
HCC-2998 colon
  TGI: > 10 µM
HCT-116 colon
  TGI: > 10 µM
HCT-15 colon
  TGI: > 10 µM
HL-60(TB) leukemia
  TGI: > 10 µM
HOP-62 NSCLC
  TGI: > 10 µM
HS 578T breast
  TGI: > 10 µM
HT29 colon
  TGI: > 10 µM
IGROV1 ovarian
  TGI: > 10 µM
K-562 leukemia
  TGI: > 10 µM
KM12 colon
  TGI: > 10 µM
LOX IMVI melanoma
  TGI: > 10 µM
M14 melanoma
  TGI: > 10 µM
MALME-3M melanoma
  TGI: > 10 µM
MCF7 breast
  TGI: > 10 µM
MDA-MB-231 breast
  TGI: > 10 µM
MDA-MB-435
  TGI: > 10 µM
MDA-N
  TGI: > 10 µM
MOLT-4 leukemia
  TGI: > 10 µM
NCI-H226 lung
  TGI: > 10 µM
NCI-H23 lung
  TGI: > 10 µM
NCI-H460 lung
  TGI: > 10 µM
NCI-H522 lung
  TGI: > 10 µM
NCI/ADR-RES ovarian
  TGI: > 10 µM
OVCAR-3 ovarian
  TGI: > 10 µM
OVCAR-4 ovarian
  TGI: > 10 µM
OVCAR-5 ovarian
  TGI: > 10 µM
OVCAR-8 ovarian
  TGI: > 10 µM
PC-3 prostate
  TGI: > 10 µM
RPMI-8226 leukemia
  TGI: > 10 µM
RXF 393 renal
  TGI: > 10 µM
SF-268 CNS
  TGI: > 10 µM
SF-295 CNS
  TGI: > 10 µM
SF-539 CNS
  TGI: > 10 µM
SK-MEL-2 melanoma
  TGI: > 10 µM
SK-MEL-28 melanoma
  TGI: > 10 µM
SK-MEL-5 melanoma
  TGI: > 10 µM
SK-OV-3 ovarian
  TGI: > 10 µM
SN12C renal
  TGI: > 10 µM
SNB-19 CNS
  TGI: > 10 µM
SNB-75 CNS
  TGI: > 10 µM
SW-620 colon
  TGI: > 10 µM
T-47D breast
  TGI: > 10 µM
TK-10 renal
  TGI: > 10 µM
U251 CNS
  TGI: > 10 µM
UACC-257 melanoma
  TGI: > 10 µM
UACC-62 melanoma
  TGI: > 10 µM

## C/C(Cl)=N/OC(=O)Nc1ccc(F)c([N+](=O)[O-])c1
786-0 renal
  TGI: 16.5 µM
A498 renal
  TGI: 39 µM
A549 NSCLC
  TGI: > 58.7 µM
ACHN renal
  TGI: 8.23 µM
BT-549 breast
  TGI: 29.8 µM
CAKI-1 renal
  TGI: 3.69 µM
COLO 205 colon
  TGI: 5.38 µM
DU-145 prostate
  TGI: 33 µM
EKVX NSCLC
  TGI: 33.1 µM
HCC-2998 colon
  TGI: > 100 µM
HCT-116 colon
  TGI: > 30.8 µM
HCT-15 colon
  TGI: 12.6 µM
HL-60(TB) leukemia
  TGI: 6.02 µM
HOP-62 NSCLC
  TGI: 33.9 µM
HOP-92 NSCLC
  TGI: > 72.5 µM
HS 578T breast
  TGI: 16.4 µM
HT29 colon
  TGI: > 52.7 µM
IGROV1 ovarian
  TGI: 17.9 µM
K-562 leukemia
  TGI: > 23.9 µM
KM12 colon
  TGI: 33.8 µM
LOX IMVI melanoma
  TGI: 18.5 µM
M14 melanoma
  TGI: > 48 µM
MALME-3M melanoma
  TGI: 8.88 µM
MCF7 breast
  TGI: > 49 µM
MDA-MB-231 breast
  TGI: 37.4 µM
MDA-MB-435
  TGI: 30.8 µM
MDA-N
  TGI: 35.1 µM
MOLT-4 leukemia
  TGI: 3.9 µM
NCI-H226 lung
  TGI: 70.1 µM
NCI-H23 lung
  TGI: 48.5 µM
NCI-H460 lung
  TGI: > 100 µM
NCI-H522 lung
  TGI: 4.27 µM
NCI/ADR-RES ovarian
  TGI: > 100 µM
OVCAR-3 ovarian
  TGI: 35.8 µM
OVCAR-4 ovarian
  TGI: 40.7 µM
OVCAR-5 ovarian
  TGI: > 53.4 µM
OVCAR-8 ovarian
  TGI: 31.7 µM
PC-3 prostate
  TGI: 33.2 µM
RPMI-8226 leukemia
  TGI: > 25.7 µM
RXF 393 renal
  TGI: 25.4 µM
SF-268 CNS
  TGI: 32.8 µM
SF-295 CNS
  TGI: > 100 µM
SF-539 CNS
  TGI: > 100 µM
SK-MEL-2 melanoma
  TGI: 32.2 µM
SK-MEL-28 melanoma
  TGI: 37.1 µM
SK-MEL-5 melanoma
  TGI: 29.2 µM
SK-OV-3 ovarian
  TGI: 45 µM
SN12C renal
  TGI: 19.4 µM
SNB-19 CNS
  TGI: 37.3 µM
SNB-75 CNS
  TGI: 25 µM
SR leukemia
  TGI: 30.7 µM
SW-620 colon
  TGI: 25.6 µM
TK-10 renal
  TGI: 13.2 µM
U251 CNS
  TGI: 41.9 µM
UACC-257 melanoma
  TGI: 53.2 µM
UACC-62 melanoma
  TGI: > 63.2 µM
UO-31 renal
  TGI: 20.5 µM
